The conditions of data set [1]: 298.15 K; 101 kPa; Liquid; Vibrating tube method.
The nature of data set [2]: xn = mol fraction of the nth substance listed. Particulars: 298.15 K, 101 kPa, Liquid, Vibrating tube method.

This passage reports mass density results from the NIST ThermoML archive (doi:10.1016/j.tca.2010.02.010).

Numbers after ± are expanded uncertainties.

Turning to `CCCCN` [1-butanamine], in data set [1], the mass density worked out at 734.65 ± 0.21 kg/m3.
Regarding `CCCCN` [1-butanamine] + CC(C)CO, the mass density in data set [2] (x1 = 0.0482) is 796.16 ± 0.3 kg/m3; in data set [2] (x1 = 0.0921) it was 794.54 ± 0.29 kg/m3; in data set [2] (x1 = 0.1855), 790.79 ± 0.28 kg/m3; in data set [2] (x1 = 0.2961), 785.62 ± 0.26 kg/m3; in data set [2] (x1 = 0.3674) it was 781.71 ± 0.25 kg/m3; in data set [2] (x1 = 0.4578), 776.31 ± 0.25 kg/m3. Besides, the mass density in data set [2] (x1 = 0.5021) was determined as 773.52 ± 0.24 kg/m3; in data set [2] (x1 = 0.5502), 770.4 ± 0.24 kg/m3; in data set [2] (x1 = 0.6313) it was 764.59 ± 0.23 kg/m3; in data set [2] (x1 = 0.7237), 757.45 ± 0.22 kg/m3; in data set [2] (x1 = 0.8191) it was 749.75 ± 0.22 kg/m3; in data set [2] (x1 = 0.9098) it was 742.18 ± 0.21 kg/m3. Also, the mass density in data set [2] (x1 = 0.9418) is on record as 739.52 ± 0.21 kg/m3; in data set [2] (x1 = 1), 734.65 ± 0.21 kg/m3.
As to `CCCCN` [1-butanamine] + CCCCCl, the mass density in data set [2] (x2 = 0) stood at 734.65 ± 0.21 kg/m3; in data set [2] (x2 = 0.0428), 740.64 ± 0.21 kg/m3; in data set [2] (x2 = 0.0758), 745.29 ± 0.21 kg/m3; in data set [2] (x2 = 0.1564), 756.7 ± 0.2 kg/m3; in data set [2] (x2 = 0.2259), 766.61 ± 0.2 kg/m3; in data set [2] (x2 = 0.3163) it was 779.6 ± 0.19 kg/m3. Further, the mass density in data set [2] (x2 = 0.3765) came to 788.3 ± 0.19 kg/m3; in data set [2] (x2 = 0.4412), 797.66 ± 0.19 kg/m3; in data set [2] (x2 = 0.4959), 805.59 ± 0.18 kg/m3; in data set [2] (x2 = 0.5804), 817.91 ± 0.18 kg/m3; in data set [2] (x2 = 0.6566), 829.09 ± 0.17 kg/m3; in data set [2] (x2 = 0.7272), 839.52 ± 0.17 kg/m3. For the same molecule, the mass density is recorded as 847.26 ± 0.17 kg/m3 in data set [2] (x2 = 0.7794), 857.31 ± 0.16 kg/m3 in data set [2] (x2 = 0.8465), 864.25 ± 0.16 kg/m3 in data set [2] (x2 = 0.8923) and 872.12 ± 0.16 kg/m3 in data set [2] (x2 = 0.9437).
Take `CCCCCl` [1-chlorobutane]: in data set [1], the mass density stood at 880.86 ± 0.15 kg/m3.
Regarding `CCCCCl` [1-chlorobutane] + CC(C)CO, the mass density in data set [2] (x1 = 0.037) was 801.07 ± 0.3 kg/m3; in data set [2] (x1 = 0.0748), 804.35 ± 0.29 kg/m3; in data set [2] (x1 = 0.1521), 811.04 ± 0.28 kg/m3; in data set [2] (x1 = 0.2331), 817.97 ± 0.27 kg/m3; in data set [2] (x1 = 0.3472) it was 827.62 ± 0.25 kg/m3; in data set [2] (x1 = 0.4266) it was 834.27 ± 0.23 kg/m3. Also, the mass density in data set [2] (x1 = 0.4911) amounted to 839.59 ± 0.22 kg/m3; in data set [2] (x1 = 0.5817), 847.01 ± 0.21 kg/m3; in data set [2] (x1 = 0.6178) it was 849.95 ± 0.2 kg/m3; in data set [2] (x1 = 0.6855), 855.42 ± 0.19 kg/m3; in data set [2] (x1 = 0.7946), 864.22 ± 0.18 kg/m3; in data set [2] (x1 = 0.8885), 871.78 ± 0.17 kg/m3. In addition, the values for the mass density in data set [2] (x1 = 0.9428) and in data set [2] (x1 = 1) were 876.18 ± 0.16 kg/m3 and 880.86 ± 0.15 kg/m3, respectively.
As for `CCCCCl` [1-chlorobutane] + CCCCN, the mass density in data set [2] (x1 = 1) was 880.86 ± 0.15 kg/m3.
`CC(C)CO` [2-methyl-1-propanol]: the mass density in data set [1] turned out to be 797.84 ± 0.31 kg/m3.
`CC(C)CO` [2-methyl-1-propanol] + CCCCCl: the mass density in data set [2] (x2 = 0) turned out to be 797.84 ± 0.31 kg/m3.
As to `CC(C)CO` [2-methyl-1-propanol] + CCCCN, in data set [2] (x2 = 0), the mass density was determined as 797.84 ± 0.31 kg/m3.

One may read the mass density as the mass of a sample divided by its volume.
